Experiments:
Format in all cases: in vivo
[1] = system: Yellow fever mosquito (Aedes aegypti); assay: whole plant or invertebrate; conditions: 48 h, larval mortality visually assessed after 2 days at 28 ± 1°C, read-out: mortality in comparison with untreated controls
Experimental: Example B1: Action on Yellow fever mosquito (Aedes aegypti)
For evaluating control of yellow fever mosquito (Aedes aegypti) the test unit consisted of 96-well-microtiter plates containing 200µL of tap water per well and 5-15 freshly hatched A. aegypti larvae.
The active compounds or mixtures were formulated using a solution containing 75% (v/v) water and 25% (v/v) DMSO. Different concentrations of formulated compounds or mixtures were sprayed onto the insect diet at 2.5µL, using a custom-built micro atomizer, at two replications.
For experimental mixtures in these tests identical volumes of both mixing partners at the desired concentrations respectively, were mixed together.
After application, microtiter plates were incubated at 28 ± 1°C, 80 ± 5 % relative humidity for 2 days. Larval mortality was then visually assessed.

[2] = system: Orchid thrips (Dichromothrips corbetti); assay: Action on Orchid thrips (Dichromothrips corbetti), floral-immersion technique; conditions: adult thrips on dipped orchid petals, 72 hours after treatment, read-out: mortality in comparison with untreated controls
Experimental: Example B2: Action on Orchid thrips (Dichromothrips corbetti)
Dichromothrips corbetti adults used for bioassay were obtained from a colony maintained continuously under laboratory conditions. For testing purposes, the test compound is diluted in a 1:1 mixture of acetone:water (vol:vol), plus Kinetic® HV at a rate of 0.01% v/v.
Thrips potency of each compound was evaluated by using a floral-immersion technique. All petals of individual, intact orchid flowers were dipped into treatment solution and allowed to dryin Petri dishes. Treated petals were placed into individual re-sealable plastic along with about 20 adult thrips. All test arenas were held under continuous light and a temperature of about 28°C for duration of the assay. After 3 days, the numbers of live thrips were counted on each petal. The percent mortality was recorded 72 hours after treatment.

[3] = system: Boll weevil (Anthonomus grandis); assay: Action on Boll weevil (Anthonomus grandis), 96-well microtiter plate insect diet test; conditions: 120 h, egg and larval mortality visually assessed after 5 days, read-out: mortality in comparison with untreated controls
Experimental: Example B3: Action on Boll weevil (Anthonomus grandis )
For evaluating control of boll weevil (Anthonomus grandis) the test unit consisted of 96-well-microtiter plates containing an insect diet and 5-10 A. grandis eggs.
The compounds were formulated using a solution containing 75% (v/v) water and 25% (v/v) DMSO. Different concentrations of formulated compounds were sprayed onto the insect diet at 5 µL, using a custom-built micro atomizer, at two replications.
After application, microtiter plates were incubated at about 25 + 1°C and about 75 + 5 % relative humidity for 5 days. Egg and larval mortality were then visually assessed.

[4] = system: Tobacco budworm (Heliothis virescens); assay: Action on Tobacco budworm (Heliothis virescens), 96-well microtiter plate insect diet test; conditions: 120 h, egg and larval mortality visually assessed after 5 days, read-out: mortality in comparison with untreated controls
Experimental: Example B5: Action on Tobacco budworm (Heliothis virescens)
For evaluating control of tobacco budworm (Heliothis virescens) the test unit consisted of 96-well-microtiter plates containing an insect diet and 15-25 H. virescens eggs.
The compounds were formulated using a solution containing 75% v/v water and 25% v/v DMSO. Different concentrations of formulated compounds were sprayed onto the insect diet at 10 µl, using a custom-built micro atomizer, at two replications.
After application, microtiter plates were incubated at about 28 + 1°C and about 80 + 5 % relative humidity for 5 days. Egg and larval mortality were then visually assessed.

[5] = system: Southern armyworm (Spodoptera eridania), second instar larvae; assay: Action on Southern armyworm (Spodoptera eridania), sprayed lima bean plants; conditions: 96 h, 4 days after treatment, read-out: mortality in comparison with untreated controls
Experimental: Example B7: Action on Southern armyworm (Spodoptera eridania), second instar larvae
The active compounds were formulated by a Tecan liquid handler in 100% cyclohexanone as a 10,000 ppm solution supplied in tubes. The 10,000 ppm solution was serially diluted in 100% cyclohexanone to make interim solutions. These served as stock solutions for which final dilutions were made by the Tecan in 50% acetone:50% water (v/v) into 10 or 20 mL glass vials. A nonionic surfactant (Kinetic®) was included in the solution at a volume of 0.01% (v/v). The vials were then inserted into an automated electrostatic sprayer equipped with an atomizing nozzle for application to plants/insects.
Lima bean plants (variety Sieva) were grown 2 plants to a pot and selected for treatment at the 1st true leaf stage. Test solutions were sprayed onto the foliage by an automated electrostatic plant sprayer equipped with an atomizing spray nozzle. The plants were dried in the sprayer fume hood and then removed from the sprayer. Each pot was placed into perforated plastic bags with a zip closure. About 10 to 11 armyworm larvae were placed into the bag and the bags zipped closed. Test plants were maintained in a growth room at about 25°C and about 20-40% relative humidity for 4 days, avoiding direct exposure to fluorescent light (24 hour photoperiod) to prevent trapping of heat inside the bags. Mortality and reduced feeding were assessed 4 days after treatment, compared to untreated control plants.

[6] = system: Diamond back moth (Plutella xylostella); assay: Action on Diamond back moth (Plutella xylostella), 96-well microtiter plate insect diet test; conditions: 120 h, read-out: mortality in comparison with untreated controls
Experimental: Example B8: Action on Diamond back moth (Plutella xylostella)
For evaluating control of diamond back moth (Plutella xylostella) the test unit consisted of 96-well-microtiter plates containing an insect diet and 15-25 P. xylostella eggs. The compounds or mixtures were formulated using a solution containing 75% water and 25% DMSO. Different concentrations of formulated compounds or mixtures were sprayed onto the insect diet at 5µl, using a custom-built micro atomizer, at two replications. For experimental mixtures in these tests identical volumes of both mixing partners at the desired concentrations respectively, were mixed together. After application, microtiter plates were incubated at 28 ± 1°C, 80 ± 5 % relative humidity for 5 days. Egg and larval mortality was then visually assessed.

[7] = system: Diamond back moth (Plutella xylostella); assay: Action on Diamond back moth (Plutella xylostella), cabbage leaf dip test; conditions: foliar, third instar larvae on dipped cabbage leaves, 72 hours after treatment, read-out: mortality in comparison with untreated controls
Experimental: Example B6: Action on Diamond back moth (Plutella xylostella)
The active compound is dissolved at the desired concentration in a mixture of 1:1 (v/v) distilled water: acetone. Surfactant (Kinetic® HV) is added at a rate of 0.01% (v/v). The test solution is prepared at the day of use.
Leaves of cabbage were dipped in test solution and air-dried. Treated leaves were placed in petri dishes lined with moist filter paper and inoculated with ten third instar larvae. Mortality was recorded 72 hours after treatment. Feeding damages were also recorded using a scale of 0-100%.

Row | SMILES | mortality at 800 ppm [1] [%] | mortality at 300 ppm [2] [%] | mortality at 800 ppm [3] [%] | mortality at 800 ppm [4] [%] | mortality at 300 ppm [5] [%] | mortality at 800 ppm [6] [%] | mortality at 300 ppm [7] [%]
1 | Cc1ccc(C(C)C)c(NC(=S)N/N=C/c2ccc(-c3nn(C)c(N4CCc5cc(OC(F)(F)F)ccc5C4=O)c3C)cc2)c1 [C-7, 1-[(E)-[4-[1,4-dimethyl-5-[1-oxo-6-(trifluoromethoxy)-3,4-dihydroisoquinolin-2-yl]pyrazol-3-yl]phenyl]methyleneamino]-3-(2-isopropyl-5-methyl-phenyl)thiourea] | ≥ 50 | ≥ 75 | ≥ 75 | ≥ 75 | ≥ 75 | ≥ 75 | –
2 | Cc1ccc(C(C)C)c(N2C(=O)CS/C2=N\C(=O)Nc2ccc(-c3nn(C)c(N4CCc5cc(OC(F)(F)F)ccc5C4=O)c3C)cc2Cl)c1 [C-12, (3Z)-1-[2-chloro-4-[1,4-dimethyl-5-[1-oxo-6-(trifluoromethoxy)-3,4-dihydroisoquinolin-2-yl]pyrazol-3-yl]phenyl]-3-[3-(2-isopropyl-5-methyl-phenyl)-4-oxo-thiazolidin-2-ylidene] urea] | ≥ 50 | ≥ 75 | ≥ 75 | ≥ 75 | ≥ 75 | – | ≥ 75
3 | Cc1ccc(C(C)C)c(N2C(=O)CS/C2=N\N=C\c2ccc(-c3nn(C)c(N4CCc5cc(OC(F)(F)F)ccc5C4=O)c3C)cc2)c1 [C-8, (2Z)-2-[(E)-[4-[1,4-dimethyl-5-[1-oxo-6-(trifluoromethoxy)-3,4-dihydroisoquinolin-2-yl]pyrazol-3-yl]phenyl]methylenehydrazono]-3-(2-isopropyl-5-methyl-phenyl)thiazolidin-4-one] | ≥ 50 | ≥ 75 | ≥ 75 | ≥ 75 | ≥ 75 | – | ≥ 75
4 | CCOC(=O)OCS/C(=N\N=C\c1ccc(-c2nn(C)c(N3Cc4cc(OC(F)(F)F)ccc4C3=O)c2C)cc1)Nc1cc(C)ccc1C(C)C [C-4, [(Z)-N'-[(E)-[4-[1,4-dimethyl-5-[1-oxo-5-(trifluoromethoxy)isoindolin-2-yl]pyrazol-3-yl]phenyl]methyleneamino]-N-(2-isopropyl-5-methyl-phenyl)carbamimidoyl]sulfanylmethyl ethyl carbonate] | ≥ 50 | ≥ 75 | ≥ 75 | ≥ 75 | ≥ 75 | ≥ 75 | –
5 | Cc1ccc(C(C)C)c(N2C(=O)CS/C2=N\N=C\c2ccc(-c3nc(N4CCc5cc(OC(F)(F)F)ccc5C4=O)n(C)n3)cc2)c1 [C-9, (2Z)-3-(2-isopropyl-5-methyl-phenyl)-2-[(E)-[4-[1-methyl-5-[1-oxo-6-(trifluoromethoxy)-3,4-dihydroisoquinolin-2-yl]-1,2,4-triazol-3-yl]phenyl]methylenehydrazono] thiazolidin-4-one] | ≥ 50 | ≥ 75 | ≥ 75 | ≥ 75 | ≥ 75 | ≥ 75 | –
6 | Cc1ccc(C(C)C)c(N/C(=N/N=C/c2ccc(-c3nn(C)c(N4Cc5cc(OC(F)(F)F)ccc5C4=O)c3C)cc2)SCOC(=O)C(C)C)c1 [C-3, [(Z)-N'-[(E)-[4-[1,4-dimethyl-5-[1-oxo-5-(trifluoromethoxy)isoindolin-2-yl]pyrazol-3-yl]phenyl]methyleneamino]-N-(2-isopropyl-5-methyl-phenyl)carbamimidoyl]sulfanylmethyl 2-methylpropanoate] | ≥ 50 | ≥ 75 | ≥ 75 | ≥ 75 | ≥ 75 | ≥ 75 | –
7 | Cc1ccc(C(C)C)c(N2C(=O)CS/C2=N\C(=O)Nc2ccc(-c3nn(C)c(N4CCc5cc(OC(F)(F)F)ccc5C4=O)c3C)cc2)c1 [C-11, (3Z)-1-[4-[1,4-dimethyl-5-[1-oxo-6-(trifluoromethoxy)-3,4-dihydroisoquinolin-2-yl]pyrazol-3-yl]phenyl]-3-[3-(2-isopropyl-5-methyl-phenyl)-4-oxo-thiazolidin-2-ylidene]urea] | ≥ 50 | ≥ 75 | ≥ 75 | ≥ 75 | ≥ 75 | – | ≥ 75
8 | Cc1ccc(C(C)C)c(NC(=S)N/N=C/c2ccc(-c3nn(C)c(N4Cc5cc(OC(F)(F)F)ccc5C4=O)c3C)cc2)c1 [C-1, 1-[(E)-[4-[1,4-dimethyl-5-[1-oxo-5-(trifluoromethoxy)isoindolin-2-yl]pyrazol-3-yl]phenyl]methyleneamino]-3-(2-isopropyl-5-methyl-phenyl)thiourea] | ≥ 50 | ≥ 75 | ≥ 75 | ≥ 75 | ≥ 75 | – | ≥ 75

Reference: patent EP4467535A1, “LACTAM PESTICIDAL COMPOUNDS” (priority 2023, dated 2024)
